# Source: publication PMC7377239, “Cardiovascular Effects of Polychlorinated Biphenyls and Their Major Metabolites” (Environmental Health Perspectives, 2020)
# Read-outs that look alike come from different tables or passages of the source.
# Legend:
# [1] = tested on: iCell endothelial cells (human iPSC-derived ECs); assay: High-content imaging cytotoxicity in iCell endothelial cells, 24 h; format: cell-based; conditions: Homo sapiens, Endothelial cell, endothelial cells (endo), 24 hr
# Experimental: The culture conditions of iCell®-endothelial cells were as reported elsewhere ([Iwata et al. 2017]). Briefly, T75 flasks were coated with a fibronectin solution ( 3 μg/cm^2 ) followed by incubation for 1–2 h. Cells were thawed for 3 min in a 37°C water bath. Thawed cells were added to maintenance medium made of VascuLife VEGF Medium Complete Kit, excluding the supplied FBS, and iCell® Endothelial Cells Medium Supplement. The final formulation of the maintenance medium is detailed in ([Iwata et al. 2017]). The aliquoted fibronectin solution was aspirated from the T75 flasks, and cells were seeded at 1.0×10^4 cells/cm^2 . Cells were maintained at 37°C and 5% CO2 with media changes occurring every 2 d and passaged every 3–4 d using TrypLE™ Express. All experiments were conducted on cells between passages 1 and 5.
# (§1) Cytotoxicity was assessed in parallel experiments. For iCell®-endothelial cells, 384-well plates were coated with a 30μg/mL fibronectin solution ( 10μL/well ) and incubated for 2 h at RT. iCell®-endothelial cells were dissociated with TrypLE™ Express and prepared into a solution to achieve 750 cells per well and 50μL of total volume. The fibronectin solution was removed from the 384-well plate, and cells were plated. For HUVECs, similar dissociation and the same cell density were used for plating with the exclusion of the fibronectin solution. Cells were incubated at 37°C and 5% CO2 until a monolayer was formed, typically 3–5 d. 2×PCB plates were created with the requisite maintenance medium. Before treatment, the medium in the wells was exchanged to 25μL/well of fresh maintenance medium. 2×PCB chemical solutions ( […] ) were added. After 24 h incubation at 37°C and 5% CO2 , cells were stained with Hoechst 33342, MitoTracker™ Orange, and calcein AM for 20 min before replacing the staining media with FluoroBright DMEM. Cell culture plates were imaged using the ImageXpress® Micro Confocal high-content imaging system (Molecular Devices). Images were acquired at 10× magnification with DAPI, TRITC, or FITC filter (Hoechst 33342, MitoTracker™, or calcein AM, respectively). The multiwavelength cell scoring applications module in MetaXpress™ (Molecular Devices) was used to analyze the images.
# (§2) Phenotypic responses were quantitatively assessed using concentration–response modeling as detailed elsewhere ([Sirenko et al. 2017]). Briefly, phenotypic readouts were normalized to vehicle controls and fit to a four-parameter logistic model in R studio software (version 3.1.1; R Development Core Team). Following EPA guidance on dose–response modeling, a cutoff of one standard deviation across means of vehicle control (i.e., 0.5% vol/vol DMSO in cell culture media) wells was applied to determine the point-of-departure (POD) values ([U.S. EPA 2012]). In the absence of a concentration–response, the highest tested concentration (i.e., 100μM ) was assigned as “no observable adverse effect level.” The concentration–response assessment R script, as well as templates for vehicle and concentration–response data, are available as a supplement to Sirenko et al. ([2017]). The ability of physicochemical properties to predict differences in PODs were evaluated by multiregression and mixed-effects modeling using R.
# HUVECs = assay: High-content imaging cytotoxicity in HUVECs, 24 h; format: cell-based, human; conditions: Homo sapiens, HUVEC, 24 h, HUVEC, 24 hr
# Experimental: Similar to the cultivation of iCell®-endothelial cells, HUVEC maintenance and experimentation are detailed elsewhere ([Iwata et al. 2017]). Briefly, HUVECs were thawed, seeded, and grown in T75 tissue culture flasks in Medium 199 with EGM™-2 BulletKits™. HUVECs were incubated at regular cell culture conditions, 37°C and 5% CO2 , and passaged every 2–3 d using TrypLE™ Express. To ensure adequate endothelial function, experiments were performed with cells between passages 1 and 5.
# as §1, §2
compound,measurement,setting,value
"Oc1ccc(O)c(-c2ccc(Cl)cc2)c1 [2',5'-diOH-PCB 3, 4-Chloro-2′,5′-dihydroxybiphenyl]",minimal effective concentration,"[1]; cyto, read-out: POD endo.cyto.24hr",6.71 µM
same,minimal effective concentration,"[1]; mito, read-out: POD endo.mito.24hr",6.71 µM
same,minimal effective concentration,"[1]; mitoint, read-out: POD endo.mitoint.24hr",44.6 µM
same,minimal effective concentration,"[1]; nma, read-out: POD endo.nma.24hr",13.7 µM
same,minimal effective concentration,"[1]; tc, read-out: POD endo.tc.24hr",5.78 µM
same,minimal effective concentration,"HUVECs; cyto, read-out: POD huvec.cyto.24hr",0.12 µM
same,minimal effective concentration,"HUVECs; mito, read-out: POD huvec.mito.24hr",0.13 µM
same,minimal effective concentration,"HUVECs; mitoint, read-out: POD huvec.mitoint.24hr",3.51 µM
same,minimal effective concentration,"HUVECs; nma, read-out: POD huvec.nma.24hr",8.87 µM
same,minimal effective concentration,"HUVECs; tc, read-out: POD huvec.tc.24hr",0.12 µM
